Data reported in patent publication US6525001B1, “Substituted pyrimidine and pyridine herbicides” (Mid-American Commercialization Corporation, priority 1997, dated 2003).

Key:
Assay type in all cases: in vivo
Set-up in all cases: key: 0 is no effect; 10 is complete control
[1] = system: duck salad (Heteranthera limosa); test: Test B flood test
Outline: (§1)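 Each value is a visual injury score relative to controls, with 10 meaning complete control and 0 no effect. Evaluation took place twelve to sixteen days after the 2-leaf-stage plants were treated and kept in the greenhouse.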

[2] = system: smallflower flatsedge (Cyperus difformis); test: Test B flood test
Outline: as §1

rice (Oryza sativa) = test: Test B flood test
Outline: as §1

[3] = system: bamyardgrass (Echinochloa crus-galli); test: Test B flood test
Outline: as §1

[4] = system: giant foxtail (Setaria faberii); test: Test B pre-/postemergence
Outline: (§2)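 Response scores run from 0, meaning no effect, to 10, meaning complete control, assigned by eye relative to controls twelve to sixteen days after spraying. Treatment was both preemergence on planted seed and postemergence on plants at the 1- to 4-leaf stage.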

rape (Brassica napus) = test: Test B pre-/postemergence
Outline: as §2

[5] = system: momingglory (Ipomoea hederacea); test: Test B pre-/postemergence
Outline: as §2

wild oat (Avena fatua) = test: Test B pre-/postemergence
Outline: as §2

[6] = system: bedstraw (Galium aparine); test: Test B pre-/postemergence; conditions: for Bedstraw plant response rating: Preemergence
Outline: as §2

[7] = system: sugar beet (Beta vulgaris); test: Test B pre-/postemergence
Outline: as §2

[8] = system: crabgrass (Digitaria sanguinalis); test: Test B pre-/postemergence; conditions: for Crabgrass plant response rating: Preemergence
Outline: as §2

[9] = system: purple nutsedge (Cyperus rotundus); test: Test B pre-/postemergence
Outline: as §2

[10] = system: cocklebur (Xanthium strumarium); test: Test B pre-/postemergence; conditions: for Plant response rating, Cocklebur: Postemergence; for Cocklebur plant response rating: Preemergence
Outline: as §2

corn (Zea mays) = test: Test B pre-/postemergence; conditions: for Corn plant response rating: Preemergence
Outline: as §2

[11] = system: blackgrass (Alopecurus myosuroides); test: Test B pre-/postemergence; conditions: for Blackgrass plant response rating: Preemergence
Outline: as §2

[12] = system: velvetleaf (Abutilon theophrasti); test: Test B pre-/postemergence
Outline: as §2

[13] = system: wheat (Triticum aestivum); test: Test B pre-/postemergence
Outline: as §2

[14] = system: broadleaf signalgrass (Brachiaria decumbens); test: Test B pre-/postemergence; conditions: for B. signalgrass plant response rating: Preemergence
Outline: as §2

soybean (Glycine max) = test: Test B pre-/postemergence
Outline: as §2

[15] = system: pigweed (Amaranthus retroflexus); test: Test B pre-/postemergence
Outline: as §2

[16] = Rate 62 g/ha, Postemergence (flood test)
[17] = Rate 125 g/ha, Postemergence, flood test
[18] = Rate 250 g/ha, Postemergence (flood test species)
[19] = Rate 125 g/ha, Postemergence section (flood test species)
[20] = Rate 250 g/ha, Postemergence (so in the source)

Compound: Cc1cnc(-c2ccc(Cl)c(Cl)c2)nc1Cc1cccc(C#N)c1 [Compound 38]
- Plant response rating, Ducksalad [1, 16]: 0
- Plant response rating, Ducksalad [1, 17]: 0
- Plant response rating, Ducksalad [1, 18]: 0
- Plant response rating, S. Flatsedge [2, 16]: 0
- S. Flatsedge plant response rating [2, 19]: 3
- Plant response rating, S. Flatsedge [2, 18]: 4
- Plant response rating, Rice (rice (Oryza sativa); [16]): 0
- Rice plant response rating (rice (Oryza sativa); [19]): 0
- Plant response rating, Rice (rice (Oryza sativa); [18]): 0
- Plant response rating, Barnyardgrass [3, 16]: 0
- Plant response rating, Barnyardgrass [3, 17]: 0
- Plant response rating, Barnyardgrass [3, 18]: 0
- Plant response rating, Giant foxtail ([4]; Rate 62 g/ha, Postemergence): 0
- Giant foxtail plant response rating ([4]; Rate 62 g/ha, Preemergence): 0
- Giant foxtail plant response rating ([4]; Rate 125 g/ha, Postemergence): 1
- Giant foxtail plant response rating ([4]; Rate 125 g/ha, Preemergence): 1
- Plant response rating, Giant foxtail ([4]; Rate 250 g/ha, Postemergence): 0
- Plant response rating, Giant foxtail [4, 20]: 1
- Plant response rating, Rape (rape (Brassica napus); Rate 62 g/ha, Postemergence): 3
- Rape plant response rating (rape (Brassica napus); Rate 62 g/ha, Preemergence): 0
- Rape plant response rating (rape (Brassica napus); Rate 125 g/ha, Postemergence): 3
- Rape plant response rating (rape (Brassica napus); Rate 125 g/ha, Preemergence): 0
- Plant response rating, Rape (rape (Brassica napus); Rate 250 g/ha, Postemergence): 6
- Plant response rating, Rape (rape (Brassica napus); [20]): 0
- Plant response rating, Morningglory ([5]; Rate 62 g/ha, Postemergence): 1
- Morningglory plant response rating ([5]; Rate 62 g/ha, Preemergence): 0
- Morningglory plant response rating ([5]; Rate 125 g/ha, Postemergence): 1
- Morningglory plant response rating ([5]; Rate 125 g/ha, Preemergence): 0
- Plant response rating, Morningglory ([5]; Rate 250 g/ha, Postemergence): 1
- Plant response rating, Morningglory [5, 20]: 0
- Wild oats plant response rating (wild oat (Avena fatua); Rate 62 g/ha, Postemergence): 1
- Wild oats plant response rating (wild oat (Avena fatua); Rate 62 g/ha, Preemergence): 0
- Wild oats plant response rating (wild oat (Avena fatua); Rate 125 g/ha, Postemergence): 1
- Plant response rating, Wild oats (wild oat (Avena fatua); Rate 125 g/ha, Preemergence): 0
- Plant response rating, Wild oats (wild oat (Avena fatua); Rate 250 g/ha, Postemergence): 1
- Plant response rating, Wild oats (wild oat (Avena fatua); [20]): 0
- Plant response rating, Bedstraw ([6]; Rate 62 g/ha, Postemergence): 7
- Bedstraw plant response rating ([6]; Rate 62 g/ha): 0
- Plant response rating, Bedstraw ([6]; Rate 125 g/ha, Postemergence): 7
- Bedstraw plant response rating ([6]; Rate 125 g/ha): 1
- Plant response rating, Bedstraw [6, 20]: 2
- Plant response rating, Sugarbeets ([7]; Rate 62 g/ha, Postemergence): 9
- Sugarbeets plant response rating ([7]; Rate 62 g/ha, Preemergence): 0
- Sugarbeets plant response rating ([7]; Rate 125 g/ha, Postemergence): 9
- Plant response rating, Sugarbeets ([7]; Rate 125 g/ha, Preemergence): 0
- Plant response rating, Sugarbeets ([7]; Rate 250 g/ha, Postemergence): 9
- Plant response rating, Sugarbeets [7, 20]: 0
- Plant response rating, Crabgrass ([8]; Rate 62 g/ha, Postemergence): 0
- Crabgrass plant response rating ([8]; Rate 62 g/ha): 0
- Plant response rating, Crabgrass ([8]; Rate 125 g/ha, Postemergence): 0
- Crabgrass plant response rating ([8]; Rate 125 g/ha): 0
- Plant response rating, Crabgrass ([8]; Rate 250 g/ha, Postemergence): 1
- Plant response rating, Crabgrass [8, 20]: 0
- Plant response rating, Nutsedge ([9]; Rate 62 g/ha, Postemergence): 0
- Nutsedge plant response rating ([9]; Rate 62 g/ha, Preemergence): 0
- Nutsedge plant response rating ([9]; Rate 125 g/ha, Postemergence): 0
- Nutsedge plant response rating ([9]; Rate 125 g/ha, Preemergence): 0
- Plant response rating, Nutsedge ([9]; Rate 250 g/ha, Postemergence): 0
- Plant response rating, Nutsedge [9, 20]: 0
- Plant response rating, Cocklebur ([10]; Rate 62 g/ha): 4
- Cocklebur plant response rating ([10]; Rate 62 g/ha): 0
- Plant response rating, Cocklebur ([10]; Rate 125 g/ha): 7
- Cocklebur plant response rating ([10]; Rate 125 g/ha): 0
- Plant response rating, Cocklebur ([10]; Rate 250 g/ha): 8
- Plant response rating, Corn (corn (Zea mays); Rate 62 g/ha, Postemergence): 1
- Corn plant response rating (corn (Zea mays); Rate 62 g/ha): 0
- Plant response rating, Corn (corn (Zea mays); Rate 125 g/ha, Postemergence): 1
- Corn plant response rating (corn (Zea mays); Rate 125 g/ha): 0
- Plant response rating, Corn (corn (Zea mays); Rate 250 g/ha, Postemergence): 1
- Plant response rating, Corn (corn (Zea mays); [20]): 0
- Plant response rating, Blackgrass ([11]; Rate 62 g/ha, Postemergence): 0
- Blackgrass plant response rating ([11]; Rate 62 g/ha): 0
- Plant response rating, Blackgrass ([11]; Rate 125 g/ha, Postemergence): 0
- Blackgrass plant response rating ([11]; Rate 125 g/ha): 0
- Plant response rating, Blackgrass ([11]; Rate 250 g/ha, Postemergence): 0
- Plant response rating, Blackgrass [11, 20]: 0
- Plant response rating, Velvetleaf ([12]; Rate 62 g/ha, Postemergence): 1
- Velvetleaf plant response rating ([12]; Rate 62 g/ha, Preemergence): 0
- Velvetleaf plant response rating ([12]; Rate 125 g/ha, Postemergence): 1
- Plant response rating, Velvetleaf ([12]; Rate 125 g/ha, Preemergence): 0
- Plant response rating, Velvetleaf ([12]; Rate 250 g/ha, Postemergence): 2
- Plant response rating, Velvetleaf [12, 20]: 0
- Wheat plant response rating ([13]; Rate 62 g/ha, Postemergence): 1
- Wheat plant response rating ([13]; Rate 62 g/ha, Preemergence): 0
- Wheat plant response rating ([13]; Rate 125 g/ha, Postemergence): 1
- Plant response rating, Wheat ([13]; Rate 125 g/ha, Preemergence): 0
- Plant response rating, Wheat ([13]; Rate 250 g/ha, Postemergence): 1
- Plant response rating, Wheat [13, 20]: 0
- Plant response rating, B. signalgrass ([14]; Rate 62 g/ha, Postemergence): 1
- B. signalgrass plant response rating ([14]; Rate 62 g/ha): 0
- Plant response rating, B. signalgrass ([14]; Rate 125 g/ha, Postemergence): 1
- B. signalgrass plant response rating ([14]; Rate 125 g/ha): 0
- Plant response rating, B. signalgrass ([14]; Rate 250 g/ha, Postemergence): 1
- Plant response rating, B. signalgrass ([14]; Rate 250 g/ha, Postemergence as printed in head r139 (second section for compounds 26-50)): 1
- Plant response rating, Soybean (soybean (Glycine max); Rate 62 g/ha, Postemergence): 1
- Soybean plant response rating (soybean (Glycine max); Rate 62 g/ha, Preemergence): 0
- Soybean plant response rating (soybean (Glycine max); Rate 125 g/ha, Postemergence): 1
- Plant response rating, Soybean (soybean (Glycine max); Rate 125 g/ha, Preemergence): 0
- Plant response rating, Soybean (soybean (Glycine max); Rate 250 g/ha, Postemergence): 1
- Plant response rating, Soybean (soybean (Glycine max); [20]): 0
- Plant response rating, Redroot pigweed ([15]; Rate 62 g/ha, Postemergence): 2
- Redroot pigweed plant response rating ([15]; Rate 62 g/ha, Preemergence): 0
- Redroot pigweed plant response rating ([15]; Rate 125 g/ha, Postemergence): 4
- Redroot pigweed plant response rating ([15]; Rate 125 g/ha, Preemergence): 0
- Plant response rating, Redroot pigweed ([15]; Rate 250 g/ha, Postemergence): 5
- Plant response rating, Redroot pigweed [15, 20]: 0
